Assay [1] concerns MAPK p38. Briefly: MAPK p38 Activation Assay in C2C12 (western blot). In kind it is cell-based, mouse. More on the design: key: Y = yes; N = No. The following applies: at 10 μM. On the procedure: (§1) Cell lines: Human tumor-derived pancreatic cancer cell line Panc-1 and mouse muscle myoblast C2C12 were purchased from American Type Culture Collection and grown in complete DMEM-High Glucose, supplemented with penicillin (100 U/mL), streptomycin (100 μg/mL), and 10% heat-inactivated FBS at 37° C. in a humidified incubator with 5% CO2.
Method: Cells were plated at 350000 cells/well density in a 12-well plate, allowed 3 hours to adhere to the plate, then starved in the appropriate medium in the presence of 0.5% FBS overnight. The small molecules to be tested were added to the cells in the final concentration of 10 μM in the presence of 0.3% DMSO for 3 hours incubation at 37° C. For IC50 value determination, serial dilutions of compounds were added to cells under the same conditions. […] Protein concentration was assessed by BCA protein assay (Thermo Scientific). Phosphorylation level of MAPK p38 was determined by western blot.
Western blot protocol: Equal amounts of protein (15-50 μg) were separated by SDS-PAGE and transferred to nitrocellulose membranes (Invitrogen by Thermo Fisher Scientific). […] Membranes were blocked with 10% milk and phosphorylation levels of Smad2/Smad3 were assessed by incubating overnight at 4° C. with the following antibody: Phospho-p38 MAPK (Thr180/Tyr182), from Cell Signaling Technology. […]
Background: In western blotting, separated proteins are transferred to a membrane and probed.

Assay [2] has as its system Smad2/3 phosphorylation. Briefly: Phospho-Smad2/3 Inhibition Assay in C2C12 (western blot). In kind it is cell-based. The following applies: Mus musculus; for IC50: C2C12, TGF-b1 stimulated. The procedure:
as §1
Method: Cells were plated at 350000 cells/well density in a 12-well plate, allowed 3 hours to adhere to the plate, then starved in the appropriate medium in the presence of 0.5% FBS overnight. The small molecules to be tested were added to the cells in the final concentration of 10 μM in the presence of 0.3% DMSO for 3 hours incubation at 37° C. For IC50 value determination, serial dilutions of compounds were added to cells under the same conditions. Next, Panc-1 cells were stimulated with 10 ng/ml TGF-b1 for 1 hour, and C2C12 cells were stimulated with 10 ng/ml TGF-b1 for 20 minutes (recombinant human TGF-b1, R&D Systems). After stimulation cells were lysed with lysis buffer containing 1% Triton X-100, EDTA, and Halt™ Protease & Phosphatase Inhibitor Cocktail (Thermo Scientific). Protein concentration was assessed by BCA protein assay (Thermo Scientific). Phosphorylation level of Smad2/Smad3 was determined by western blot.
Western blot protocol: Equal amounts of protein (15-50 μg) were separated by SDS-PAGE and transferred to nitrocellulose membranes (Invitrogen by Thermo Fisher Scientific). The membrane was stained with Ponceau S Stain (Boston BioProducts) to verify uniform protein loading. Membranes were blocked with 10% milk and phosphorylation levels of Smad2/Smad3 were assessed by incubating overnight at 4° C. with the following antibodies: Phospho-Smad2 (Ser465/467) and Phosph-Smad3 (Ser423/425), both from Cell Signaling Technology. Then the membranes were incubated with HRP-conjugated secondary antibody (Jackson Immunoresearch, West Grove, PA). Bands were incubated in Amersham ECL Prime Western Blotting Detection Reagent (GE Healthcare) and visualized using the ChemiDoc MP imaging system (Bio-Rad).

In assay [3] the target is Rheb (Homo sapiens (Human), UniProt Q15382). Put plainly: Rheb GTP Binding Domain Inhibition Assay. The following applies: read-out: Rheb: % inh. On the procedure: The following method was developed as specific assay for cdc42 and Rheb proteins.
Buffer-I: • 25 mM Tris-HCl, pH 7.4 • 27 mM KCl • 137 mM NaCl • 1 mM MgCl2 • 1 mM DTT
Buffer-IL: • 50 mM Tris-HCl, pH 7.0 • 1 mM MgCl2 • 1 mM DTT
The small GTPases proteins cdc42 and Rheb were expressed as His-tagged proteins. For the assay, the cdc42 and Rheb purified small GTPases proteins were diluted in Buffer-I or Buffer-II to a final concentration of 10-30 μg/mL. 200 μL of each diluted protein was added to a nickel-coated 96-well plate and incubated overnight at […]. Then the protein solution was discarded and 200 μL of Buffer-I or Buffer-II was added to each well in the presence of 1% DMSO. Compounds to be tested were added to the protein-coated wells at final concentration of 20 μM, and incubated for 3 hours at room temperature with and without 10-30 μg/mL of Sos added to the final hour of the incubation. When performing IC50 measurements a serial dilution of all tested concentrations was added. Then Cy3-GTP or Cy5-GTP was added to each well to a final concentration of 100 nM. The labeled GTP was incubated for 45 minutes at room temperature. Following GTP incubation, wells were washed 3× in Buffer-I or Buffer-II and 200 μL of Buffer-I or Buffer-II was added to each well. Following washes, the amount of bound labeled-GTP was measured using a SpectraMax M3 (Molecular Devices).

Structures are written as SMILES.

Chain of Rheb (Q15382 whole entry, species assumed, the tested form may be a part): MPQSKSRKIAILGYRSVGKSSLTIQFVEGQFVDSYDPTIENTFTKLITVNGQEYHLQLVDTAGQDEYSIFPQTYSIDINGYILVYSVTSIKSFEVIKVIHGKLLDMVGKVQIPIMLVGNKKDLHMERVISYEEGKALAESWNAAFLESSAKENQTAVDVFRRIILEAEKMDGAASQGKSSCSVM

Usually IC50 stands for the midpoint of a concentration-inhibition curve. As to `COCCNc1nc(-c2nccn2C)nc2sc(-c3cccc(OC)c3Cl)c(-c3ccccc3)c12` [Compound 9, 6-(2-Chloro-3-methoxyphenyl)-N-(2-methoxyethyl)-2-(1-methyl-1H-imidazol-2-yl)-5-phenylthieno[2,3-d]pyrimidin-4-amine], the “Activation of MAPK p38 in C2C12” value in assay [1] is listed as “Y”. In addition, the inhibition at 10 µM in assay [2] (10 μM, 3 hours, C2C12 stimulated with 10 ng/ml TGF-b1 for 20 minutes, read-out: % inh of Smad2/3 phosphorylation in C2C12) was 76 to 100%. The IC50 in assay [2] lay within 1 to 4.99 µM. Consider `COc1cc(-c2sc3nc(-c4nccn4C)nc(N[C@@H]4CC[C@H](OC)C4)c3c2-c2ccccc2)ccn1` (racemic) [Compound 44, rac-N-((1R,3S)-3-Methoxycyclopentyl)-6-(2-methoxypyridin-4-yl)-2-(1-methyl-1H-imidazol-2-yl)-5-phenylthieno[2,3-d]pyrimidin-4-amine], for which, in assay [3], the inhibition at 20 µM was 26 to 45%. Same read-out and setting: to `COc1cccc(-c2sc3nc(-c4nccn4C)nc(N[C@H]4C[C@H](OC)C4)c3c2-c2ccccc2)c1F` [Compound 40, 6-(2-Fluoro-3-methoxyphenyl)-N-((1r,3r)-3-methoxycyclobutyl)-2-(1-methyl-1H-imidazol-2-yl)-5-phenylthieno[2,3-d]pyrimidin-4-amine] belongs 76 to 100%.

With `COc1cc(-c2sc3nc(-c4nccn4C)nc(N[C@H]4C[C@H](OC)C4)c3c2-c2ccccc2)ccn1` [Compound 46, N-((1r,3r)-3-Methoxycyclobutyl)-6-(2-methoxypyridin-4-yl)-2-(1-methyl-1H-imidazol-2-yl)-5-phenylthieno[2,3-d]pyrimidin-4-amine], the inhibition at 20 µM in assay [3] is 76 to 100%.

Regarding `COc1cccc(Nc2nc(-c3nccn3C)nc3sc(-c4ccn(C(C)C)n4)c(C)c23)c1` [Compound 17, 6-(1-Isopropyl-1H-pyrazol-3-yl)-N-(3-methoxyphenyl)-5-methyl-2-(1-methyl-1H-imidazol-2-yl)thieno[2,3-d]pyrimidin-4-amine], in assay [2], the IC50 lay in the range of 5 to 10 µM. Turning to `COc1cc(-c2sc3nc(-c4nccn4C)nc(N[C@@H]4CC[C@@H](OC)C4)c3c2-c2ccccc2)ccn1` (racemic) [Compound 47, N-((1R,3R)-3-Methoxycyclopentyl)-6-(2-methoxypyridin-4-yl)-2-(1-methyl-1H-imidazol-2-yl)-5-phenylthieno[2,3-d]pyrimidin-4-amine], in assay [3], the inhibition at 20 µM was 76 to 100%.

Consider `COc1cc(Nc2nc(-c3nccn3C)nc3sc(-c4ccn(C(C)C)n4)c(C)c23)ncn1` [Compound 19, 6-(1-Isopropyl-1H-pyrazol-3-yl)-N-(6-methoxypyrimidin-4-yl)-5-methyl-2-(1-methyl-1H-imidazol-2-yl)thieno[2,3-d]pyrimidin-4-amine], for which, in assay [2], the IC50 is over 10 µM. Take `COc1nccc(-c2sc3nc(-c4nccn4C)nc(N[C@H]4C[C@H](OC)C4)c3c2-c2ccccc2)c1F` [Compound 45, 6-(3-Fluoro-2-methoxypyridin-4-yl)-N-((1r,3r)-3-methoxycyclobutyl)-2-(1-methyl-1H-imidazol-2-yl)-5-phenylthieno[2,3-d]pyrimidin-4-amine]: the inhibition at 20 µM in assay [3] fell in the range of 76 to 100%. With `COCCNc1nc(-c2cn(C)cn2)nc2sc(-c3cccc(OC)c3Cl)c(-c3ccc(OC)cc3)c12` [Compound 8, 6-(2-Chloro-3-methoxyphenyl)-N-(2-methoxyethyl)-5-(4-methoxyphenyl)-2-(1-methyl-1H-imidazol-4-yl)thieno[2,3-d]pyrimidin-4-amine], the “Activation of MAPK p38 in C2C12” value in assay [1] was “Y”. This compound returned an IC50 in assay [2] of 1 to 4.99 µM.

The compound `COc1cccc(Nc2nc(-c3nccn3C)nc3sc(-c4ccn(C(C)C)n4)c(C)c23)n1` [Compound 18, 6-(1-Isopropyl-1H-pyrazol-3-yl)-N-(6-methoxypyridin-2-yl)-5-methyl-2-(1-methyl-1H-imidazol-2-yl)thieno[2,3-d]pyrimidin-4-amine] gave an IC50 in assay [2] of 5 to 10 µM.

(Values after patent publication US20240124483A1, “Methods for the Treatment of Fibrotic Disease” (SHY Therapeutics, LLC, priority 2021, published 2024).)
